# Source: ChEMBL document CHEMBL3108668, “Antitumor activity of jujuboside B and the underlying mechanism via induction of apoptosis and autophagy” (J Nat Prod, 2014)
# Calls of active or inactive are those of the source. The rule behind the calls is not given here.
# Assays:
# [1] = tested on: AGS; assay: Induction of apoptosis in human AGS cells assessed as increase in LC3-2 level at 50 uM after 24 hrs by Western blotting analysis in presence of bafilomycin A1; assay type: functional, cell-based
# [2] = tested on: AGS; assay: Induction of apoptosis in human AGS cells assessed as increase in pJNK level at 100 uM after 24 hrs by Western blotting analysis in presence of bafilomycin A1; assay type: functional, cell-based
# [3] = tested on: AGS; assay: Cytotoxicity against human AGS cells at 100 uM after 24 hrs by MTT assay in presence of bafilomycin A1; assay type: functional, cell-based
# [4] = tested on: HCT-116; assay: Induction of autophagy in human HCT116 cells assessed as increase in LC3-2 level at 50 uM after 24 hrs by Western blotting analysis; assay type: functional, cell-based
# [5] = tested on: AGS; assay: Induction of autophagy in human AGS cells assessed as increase in LC3-2 level at 50 uM after 24 hrs by Western blotting analysis; assay type: functional, cell-based
# [6] = tested on: AGS; assay: Induction of autophagy in human AGS cells assessed as massive vacuole formation at 50 uM after 24 hrs by acridine orange staining-based fluorescence microscopy in presence of bafilomycin A1; assay type: functional, cell-based
# [7] = tested on: AGS; assay: Induction of autophagy in human AGS cells assessed as massive vacuole formation at 50 uM after 24 hrs by fluorescence microscopy; assay type: functional, cell-based
# [8] = tested on: AGS; assay: Induction of apoptosis in human AGS cells assessed as reduction of FasL level at 100 uM after 24 hrs by Western blotting analysis in presence of SB202190; assay type: functional, cell-based
# [9] = tested on: AGS; assay: Induction of apoptosis in human AGS cells assessed as reduction of caspase8 activation at 100 uM after 24 hrs by Western blotting analysis in presence of SP600125; assay type: functional, cell-based
# [10] = tested on: AGS; assay: Induction of apoptosis in human AGS cells assessed as decrease in pERK level at 25 to 150 uM after 24 hrs by Western blotting analysis; assay type: functional, cell-based
# [11] = tested on: AGS; assay: Induction of apoptosis in human AGS cells assessed as increase in pJNK level at 25 to 150 uM after 24 hrs by Western blotting analysis; assay type: functional, cell-based
# [12] = tested on: AGS; assay: Induction of apoptosis in human AGS cells assessed as increase in pp38 level at 25 to 150 uM after 24 hrs by Western blotting analysis; assay type: functional, cell-based
# [13] = tested on: AGS; assay: Induction of apoptosis in human AGS cells assessed as caspase-9 activation at 25 to 150 uM after 24 hrs by Western blotting analysis; assay type: functional, cell-based
# [14] = tested on: AGS; assay: Induction of apoptosis in human AGS cells assessed as procaspase-9 level at 25 to 150 uM after 24 hrs by Western blotting analysis; assay type: functional, cell-based
# [15] = tested on: AGS; assay: Induction of apoptosis in human AGS cells assessed as increase in FasL level at 25 to 150 uM after 24 hrs by Western blotting analysis; assay type: functional, cell-based
# [16] = tested on: AGS; assay: Induction of apoptosis in human AGS cells assessed as caspase-8 activation at 25 to 150 uM after 24 hrs by Western blotting analysis; assay type: functional, cell-based
# [17] = tested on: AGS; assay: Induction of apoptosis in human AGS cells assessed as PARP-1 cleavage after 24 hrs by Western blotting analysis; assay type: functional, cell-based
# [18] = tested on: Mus musculus; assay: Toxicity in BALB/c nude mouse xenografted with human HCT116 cells assessed as change in body weight at 40 mg/kg, ip administered 3 times a week for 5 weeks; assay type: organism-based, HCT-116; design: dose 40 mg/kg, route intraperitoneal; conditions: in vivo, 840 h
# [19] = tested on: HCT-116; assay: Antitumor activity against human HCT116 cells xenografted in BALB/c nude mouse at 40 mg/kg, ip administered 3 times a week for 5 weeks relative to control; assay type: functional; conditions: route intraperitoneal
# [20] = tested on: AGS; assay: Cell cycle arrest in human AGS cells assessed as accumulation at sub G1 phase at 100 uM after 24 hrs by propidium iodide staining-based flow cytometry; assay type: functional
# [21] = tested on: AGS; assay: Induction of apoptosis in human AGS cells assessed as apoptotic cells at 150 uM after 24 hrs by annexin V-FITC/propidium iodide staining-based flow cytometry; assay type: functional
# [22] = tested on: AGS; assay: Induction of apoptosis in human AGS cells assessed as apoptotic cells at 100 uM after 24 hrs by annexin V-FITC/propidium iodide staining-based flow cytometry; assay type: functional
# [23] = tested on: AGS; assay: Induction of apoptosis in human AGS cells assessed as apoptotic cells at 50 uM after 24 hrs by annexin V-FITC/propidium iodide staining-based flow cytometry; assay type: functional
# [24] = tested on: AGS; assay: Induction of apoptosis in human AGS cells assessed as apoptotic cells at 25 uM after 24 hrs by annexin V-FITC/propidium iodide staining-based flow cytometry; assay type: functional
# [25] = tested on: HCT-116; assay: Induction of apoptosis in human HCT116 cells assessed as necrotic cells at 150 uM after 24 hrs by annexin V-FITC/propidium iodide staining-based flow cytometry (reference value: 0.68%); assay type: functional
# [26] = tested on: HCT-116; assay: Induction of apoptosis in human HCT116 cells assessed as necrotic cells at 50 uM after 24 hrs by annexin V-FITC/propidium iodide staining-based flow cytometry (reference value: 0.68%); assay type: functional
# [27] = tested on: HCT-116; assay: Induction of apoptosis in human HCT116 cells assessed as late apoptotic cells at 150 uM after 24 hrs by annexin V-FITC/propidium iodide staining-based flow cytometry (reference value: 2.71%); assay type: functional
# [28] = tested on: HCT-116; assay: Induction of apoptosis in human HCT116 cells assessed as late apoptotic cells at 100 uM after 24 hrs by annexin V-FITC/propidium iodide staining-based flow cytometry (reference value: 2.71%); assay type: functional
# [29] = tested on: HCT-116; assay: Induction of apoptosis in human HCT116 cells assessed as early apoptotic cells at 50 uM after 24 hrs by annexin V-FITC/propidium iodide staining-based flow cytometry (reference value: 3.61%); assay type: functional
# [30] = tested on: HCT-116; assay: Induction of apoptosis in human HCT116 cells assessed as early apoptotic cells at 25 uM after 24 hrs by annexin V-FITC/propidium iodide staining-based flow cytometry (reference value: 3.61%); assay type: functional
# [31] = tested on: AGS; assay: Induction of apoptosis in human AGS cells assessed as necrotic cells at 100 uM after 24 hrs by annexin V-FITC/propidium iodide staining-based flow cytometry (reference value: 0.12%); assay type: functional
# [32] = tested on: AGS; assay: Induction of apoptosis in human AGS cells assessed as late apoptotic cells at 50 uM after 24 hrs by annexin V-FITC/propidium iodide staining-based flow cytometry (reference value: 7.3%); assay type: functional
# [33] = tested on: AGS; assay: Induction of apoptosis in human AGS cells assessed as late apoptotic cells at 25 uM after 24 hrs by annexin V-FITC/propidium iodide staining-based flow cytometry (reference value: 7.3%); assay type: functional
# [34] = tested on: HCT-116; assay: Induction of apoptosis in human HCT116 cells assessed as cell shrinkage at >100 uM after 24 hrs by acridine orange staining-based microscopy; assay type: functional
# [35] = tested on: AGS; assay: Induction of apoptosis in human AGS cells assessed as cell shrinkage at >100 uM after 24 hrs by acridine orange staining-based microscopy; assay type: functional
# [36] = tested on: AGS; assay: Induction of apoptosis in human AGS cells assessed as cell rounding at >100 uM after 24 hrs by acridine orange staining-based microscopy; assay type: functional
# [37] = tested on: HCT-116; assay: Cytotoxicity against human HCT116 cells after 24 hrs by MTT assay; assay type: functional, cell-based
# [38] = tested on: AGS; assay: Induction of autophagy in human AGS cells assessed as massive vacuole formation at 50 uM after 24 hrs by acridine orange staining-based fluorescence microscopy; assay type: functional, cell-based
# [39] = tested on: AGS; assay: Induction of apoptosis in human AGS cells assessed as reduction of caspase3 activation at 100 uM after 24 hrs by Western blotting analysis in presence of SP600125; assay type: functional, cell-based
structure (smiles),measurement,setting,value
CC(C)=C[C@H]1C[C@](C)(O)[C@@H]2[C@H]3CC[C@@H]4[C@@]5(C)CC[C@H](O[C@@H]6OC[C@H](O)[C@H](O[C@@H]7O[C@H](CO)[C@@H](O)[C@H](O)[C@H]7O[C@@H]7OC[C@@H](O)[C@H](O)[C@H]7O)[C@H]6O[C@@H]6O[C@@H](C)[C@H](O)[C@@H](O)[C@H]6O)C(C)(C)[C@@H]5CC[C@@]4(C)[C@@]34CO[C@@]2(C4)O1,Activity,[1],Active
same,Activity,[2],Active
same,Activity,[3],Active
same,Activity,[4],Active
same,Activity,[5],Active
same,Activity,[6],inactive
same,Activity,[7],Active
same,Activity,[8],inactive
same,Activity,[9],inactive
same,Activity,[10],inactive
same,Activity,[11],Active
same,Activity,[12],Active
same,Activity,[13],inactive
same,Activity,[14],inactive
same,Activity,[15],Active
same,Activity,[16],Active
same,Activity,[17],Dose-dependent effect
same,Activity,[18],Non-toxic
same,Activity,[19],60%
same,Activity,[20],8.29%
same,Activity,[21],39.55%
same,Activity,[22],28.85%
same,Activity,[23],15.78%
same,Activity,[24],10.81%
same,Activity,[25],5.1%
same,Activity,[26],0.5%
same,Activity,[27],17.9%
same,Activity,[28],9.74%
same,Activity,[29],6.65%
same,Activity,[30],2.64%
same,Activity,[31],1.06%
same,Activity,[32],7.05%
same,Activity,[33],5.24%
same,Activity,[34],Active
same,Activity,[35],Active
same,Activity,[36],Active
same,Activity,[37],Dose-dependent effect
same,IC50,"[37]; HCT-116, 24 h",114 µM
same,Activity,[38],Active
same,Activity,[39],inactive
